Source: article PMC6407913, “DREADD Agonist 21 Is an Effective Agonist for Muscarinic-Based DREADDs in Vitro and in Vivo” (ACS Pharmacology & Translational Science, 2018)
Several values for one entry are separate records, joined by “and”; a condition that tells them apart may be missing. Equal values may be shown once.

Experiments:
Type in all cases: cell-based
[1] = molecular target: T1, 318 nonolfactory human GPCRs (Homo sapiens, UniProt O15354); details: GPR37; C21 5 µM
T1 construct: expressed in transfected cells; host or cells: HTLA cells, transient
T1 sequence (O15354 27-613): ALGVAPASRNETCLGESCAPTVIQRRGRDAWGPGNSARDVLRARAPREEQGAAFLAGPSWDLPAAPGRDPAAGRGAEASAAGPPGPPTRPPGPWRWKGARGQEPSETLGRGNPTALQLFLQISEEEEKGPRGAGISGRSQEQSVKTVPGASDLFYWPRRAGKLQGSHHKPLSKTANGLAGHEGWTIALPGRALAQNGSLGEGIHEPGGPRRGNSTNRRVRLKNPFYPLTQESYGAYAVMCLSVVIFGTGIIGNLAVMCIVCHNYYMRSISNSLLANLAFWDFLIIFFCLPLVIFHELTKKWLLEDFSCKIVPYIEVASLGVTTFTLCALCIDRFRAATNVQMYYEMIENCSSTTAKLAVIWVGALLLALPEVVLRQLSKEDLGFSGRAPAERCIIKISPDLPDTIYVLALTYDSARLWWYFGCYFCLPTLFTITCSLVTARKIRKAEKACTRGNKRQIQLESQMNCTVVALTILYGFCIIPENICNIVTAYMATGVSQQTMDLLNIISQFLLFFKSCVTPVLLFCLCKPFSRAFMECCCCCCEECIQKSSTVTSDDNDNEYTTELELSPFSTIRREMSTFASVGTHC

[2] = molecular target: 318 nonolfactory human GPCRs (Homo sapiens, UniProt P07550); details: ADRB2; C21 5 µM
[3] = molecular target: 318 nonolfactory human GPCRs (Homo sapiens, UniProt P28221); details: HTR1D; C21 5 µM
Sequence of 318 nonolfactory human GPCRs (Homo sapiens, UniProt P28221) (P28221 whole entry): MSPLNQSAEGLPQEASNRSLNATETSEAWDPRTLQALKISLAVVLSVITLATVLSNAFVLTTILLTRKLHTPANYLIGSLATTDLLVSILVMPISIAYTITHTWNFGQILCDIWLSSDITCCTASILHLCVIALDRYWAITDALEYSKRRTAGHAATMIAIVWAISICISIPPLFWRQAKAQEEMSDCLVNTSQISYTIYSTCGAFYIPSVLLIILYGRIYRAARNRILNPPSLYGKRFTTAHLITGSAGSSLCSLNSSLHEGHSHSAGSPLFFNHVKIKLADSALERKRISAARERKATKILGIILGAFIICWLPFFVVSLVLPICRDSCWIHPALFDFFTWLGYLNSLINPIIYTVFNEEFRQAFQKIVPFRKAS

[4] = molecular target: T2, 318 nonolfactory human GPCRs (Homo sapiens, UniProt P28222); details: HTR1B; C21 5 µM
T2 construct: expressed in transfected cells; host or cells: HTLA cells, transient

[5] = molecular target: 318 nonolfactory human GPCRs (Homo sapiens, UniProt P28223); details: HTR2A; C21 5 µM
[6] = molecular target: T3, 318 nonolfactory human GPCRs (Homo sapiens, UniProt P32248); details: CCR7; C21 5 µM
T3 construct: expressed in transfected cells; host or cells: HTLA cells, transient
T3 sequence (P32248 25-378): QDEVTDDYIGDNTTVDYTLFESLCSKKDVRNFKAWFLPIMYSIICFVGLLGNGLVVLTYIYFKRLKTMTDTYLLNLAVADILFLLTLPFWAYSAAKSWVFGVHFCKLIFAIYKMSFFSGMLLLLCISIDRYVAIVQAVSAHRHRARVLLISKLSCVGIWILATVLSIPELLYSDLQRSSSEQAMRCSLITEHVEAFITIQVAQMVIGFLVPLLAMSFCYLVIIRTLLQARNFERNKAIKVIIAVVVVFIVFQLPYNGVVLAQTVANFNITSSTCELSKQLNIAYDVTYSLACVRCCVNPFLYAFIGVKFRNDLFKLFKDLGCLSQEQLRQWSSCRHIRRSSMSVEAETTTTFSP

[7] = molecular target: T4, 318 nonolfactory human GPCRs (Homo sapiens, UniProt P43115); details: PTGER3; C21 5 µM
T4 construct: expressed in transfected cells; host or cells: HTLA cells, transient
T4 sequence (P43115 whole entry): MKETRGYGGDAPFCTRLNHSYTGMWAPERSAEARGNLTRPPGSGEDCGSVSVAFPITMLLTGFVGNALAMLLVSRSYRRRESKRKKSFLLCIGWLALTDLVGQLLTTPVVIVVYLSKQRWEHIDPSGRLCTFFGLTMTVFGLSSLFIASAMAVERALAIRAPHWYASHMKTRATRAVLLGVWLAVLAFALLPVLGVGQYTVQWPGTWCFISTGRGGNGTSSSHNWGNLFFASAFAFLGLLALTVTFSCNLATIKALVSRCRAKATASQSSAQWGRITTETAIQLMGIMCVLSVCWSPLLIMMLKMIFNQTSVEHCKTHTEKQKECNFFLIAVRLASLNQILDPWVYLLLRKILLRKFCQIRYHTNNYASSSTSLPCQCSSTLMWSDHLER

[8] = molecular target: T5, 318 nonolfactory human GPCRs (Homo sapiens, UniProt P46663); details: BDKBR1; C21 5 µM
T5 construct: expressed in transfected cells; host or cells: HTLA cells, transient

[9] = molecular target: T6, 318 nonolfactory human GPCRs (Homo sapiens, UniProt P47775); details: GPR12; C21 5 µM
T6 construct: expressed in transfected cells; host or cells: HTLA cells, transient

[10] = molecular target: T7, 318 nonolfactory human GPCRs (Homo sapiens, UniProt P51685); details: CCR8; C21 5 µM
T7 construct: expressed in transfected cells; host or cells: HTLA cells, transient
T7 sequence (P51685 whole entry): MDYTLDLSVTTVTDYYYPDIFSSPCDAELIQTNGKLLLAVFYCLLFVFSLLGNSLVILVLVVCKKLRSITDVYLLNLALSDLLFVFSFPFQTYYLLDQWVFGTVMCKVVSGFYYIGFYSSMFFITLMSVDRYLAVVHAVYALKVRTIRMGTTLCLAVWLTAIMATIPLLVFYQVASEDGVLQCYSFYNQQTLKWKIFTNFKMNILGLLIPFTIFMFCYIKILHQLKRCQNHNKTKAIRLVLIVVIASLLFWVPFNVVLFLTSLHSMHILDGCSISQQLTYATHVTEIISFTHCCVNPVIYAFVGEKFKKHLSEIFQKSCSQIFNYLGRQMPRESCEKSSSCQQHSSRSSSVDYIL

[11] = molecular target: T8, 318 nonolfactory human GPCRs (Homo sapiens, UniProt Q01726); details: MC1R; C21 5 µM
T8 construct: expressed in transfected cells; host or cells: HTLA cells, transient
T8 sequence (Q01726 whole entry): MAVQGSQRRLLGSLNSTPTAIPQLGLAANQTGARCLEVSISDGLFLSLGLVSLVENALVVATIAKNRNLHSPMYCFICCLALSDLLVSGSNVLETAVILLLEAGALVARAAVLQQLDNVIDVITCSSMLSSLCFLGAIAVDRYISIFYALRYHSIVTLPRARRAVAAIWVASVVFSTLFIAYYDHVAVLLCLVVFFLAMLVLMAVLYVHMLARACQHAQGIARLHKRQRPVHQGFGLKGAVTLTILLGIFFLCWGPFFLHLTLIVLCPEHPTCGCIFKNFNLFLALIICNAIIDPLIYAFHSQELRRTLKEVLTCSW

[12] = molecular target: T9, 318 nonolfactory human GPCRs (Homo sapiens, UniProt Q14439); details: GPR176; C21 5 µM
T9 construct: expressed in transfected cells; host or cells: HTLA cells, transient

[13] = molecular target: T10, 318 nonolfactory human GPCRs (Homo sapiens, UniProt Q16538); details: GPR162; C21 5 µM
T10 construct: expressed in transfected cells; host or cells: HTLA cells, transient

[14] = molecular target: T11, 318 nonolfactory human GPCRs (Homo sapiens, UniProt Q86SQ6); details: GPR123; C21 5 µM
T11 construct: expressed in transfected cells; host or cells: HTLA cells, transient

[15] = molecular target: T12, 318 nonolfactory human GPCRs (Homo sapiens, UniProt Q8NGU9); details: GPR150; C21 5 µM
T12 construct: expressed in transfected cells; host or cells: HTLA cells, transient
T12 sequence (Q8NGU9 whole entry): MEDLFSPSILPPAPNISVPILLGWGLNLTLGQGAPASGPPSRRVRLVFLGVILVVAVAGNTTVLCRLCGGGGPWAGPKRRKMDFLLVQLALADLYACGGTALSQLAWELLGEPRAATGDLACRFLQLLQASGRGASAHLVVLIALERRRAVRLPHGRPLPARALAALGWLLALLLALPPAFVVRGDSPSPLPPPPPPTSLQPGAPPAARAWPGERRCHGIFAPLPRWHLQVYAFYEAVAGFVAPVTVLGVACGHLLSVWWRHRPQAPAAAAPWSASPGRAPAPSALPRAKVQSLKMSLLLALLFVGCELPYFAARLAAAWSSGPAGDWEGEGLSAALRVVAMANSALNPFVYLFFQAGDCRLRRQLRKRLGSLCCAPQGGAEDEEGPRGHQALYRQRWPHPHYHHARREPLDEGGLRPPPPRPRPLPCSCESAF

[16] = molecular target: T13, 318 nonolfactory human GPCRs (Homo sapiens, UniProt Q8TDU6); details: GPBA; C21 5 µM
T13 construct: expressed in transfected cells; host or cells: HTLA cells, transient

[17] = molecular target: T14, 318 nonolfactory human GPCRs (Homo sapiens, UniProt Q92633); details: LPAR1; C21 5 µM
T14 construct: expressed in transfected cells; host or cells: HTLA cells, transient

[18] = molecular target: T15, 318 nonolfactory human GPCRs (Homo sapiens, UniProt Q96G91); details: P2RY11; C21 5 µM
T15 construct: expressed in transfected cells; host or cells: HTLA cells, transient

[19] = molecular target: T16, 318 nonolfactory human GPCRs (Homo sapiens, UniProt Q99527); details: GPER; C21 5 µM
T16 construct: expressed in transfected cells; host or cells: HTLA cells, transient

[20] = molecular target: T17, 318 nonolfactory human GPCRs (Homo sapiens, UniProt Q9BXC0); details: HCA1; C21 5 µM
T17 construct: expressed in transfected cells; host or cells: HTLA cells, transient

[21] = molecular target: T18, 318 nonolfactory human GPCRs (Homo sapiens, UniProt Q9BXC1); details: GPR174; C21 5 µM
T18 construct: expressed in transfected cells; host or cells: HTLA cells, transient
T18 sequence (Q9BXC1 whole entry): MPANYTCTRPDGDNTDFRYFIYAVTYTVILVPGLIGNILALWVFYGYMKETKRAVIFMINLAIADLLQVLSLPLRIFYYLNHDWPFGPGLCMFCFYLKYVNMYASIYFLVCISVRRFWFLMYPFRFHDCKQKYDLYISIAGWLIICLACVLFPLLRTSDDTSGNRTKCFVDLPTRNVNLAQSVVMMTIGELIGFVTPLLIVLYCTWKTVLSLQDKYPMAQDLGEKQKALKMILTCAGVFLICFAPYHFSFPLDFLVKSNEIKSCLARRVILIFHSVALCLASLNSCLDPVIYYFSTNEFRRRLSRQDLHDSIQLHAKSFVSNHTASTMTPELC

[22] = molecular target: T19, 318 nonolfactory human GPCRs (Homo sapiens, UniProt Q9BY21); details: GPR87; C21 5 µM
T19 construct: expressed in transfected cells; host or cells: HTLA cells, transient
T19 sequence (Q9BY21 whole entry): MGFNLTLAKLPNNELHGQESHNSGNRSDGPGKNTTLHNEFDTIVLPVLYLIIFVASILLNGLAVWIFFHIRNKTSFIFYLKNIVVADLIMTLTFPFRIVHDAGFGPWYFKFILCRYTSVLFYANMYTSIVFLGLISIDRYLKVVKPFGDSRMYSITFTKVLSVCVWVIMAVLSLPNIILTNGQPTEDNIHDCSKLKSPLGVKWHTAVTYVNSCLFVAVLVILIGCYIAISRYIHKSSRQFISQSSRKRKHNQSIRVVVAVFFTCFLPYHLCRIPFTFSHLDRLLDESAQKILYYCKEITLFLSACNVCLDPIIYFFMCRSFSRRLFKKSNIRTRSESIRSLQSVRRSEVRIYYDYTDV

[23] = molecular target: T20, 318 nonolfactory human GPCRs (Homo sapiens, UniProt Q9H1Y3); details: OPN3; C21 5 µM
T20 construct: expressed in transfected cells; host or cells: HTLA cells, transient
T20 sequence (Q9H1Y3 whole entry): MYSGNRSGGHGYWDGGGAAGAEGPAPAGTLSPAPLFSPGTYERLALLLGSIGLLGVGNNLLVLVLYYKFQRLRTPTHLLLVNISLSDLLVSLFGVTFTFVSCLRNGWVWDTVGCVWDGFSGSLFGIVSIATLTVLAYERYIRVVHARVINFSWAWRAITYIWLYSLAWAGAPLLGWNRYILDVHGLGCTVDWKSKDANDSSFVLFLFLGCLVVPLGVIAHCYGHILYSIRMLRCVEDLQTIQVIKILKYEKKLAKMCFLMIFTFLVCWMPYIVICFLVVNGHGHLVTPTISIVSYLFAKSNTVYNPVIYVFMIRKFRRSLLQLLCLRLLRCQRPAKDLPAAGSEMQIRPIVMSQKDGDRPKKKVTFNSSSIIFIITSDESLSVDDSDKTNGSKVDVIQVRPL

[24] = molecular target: T21, 318 nonolfactory human GPCRs (Homo sapiens, UniProt Q9H3N8); details: HRH4; C21 5 µM
T21 construct: expressed in transfected cells; host or cells: HTLA cells, transient
T21 sequence (Q9H3N8 whole entry): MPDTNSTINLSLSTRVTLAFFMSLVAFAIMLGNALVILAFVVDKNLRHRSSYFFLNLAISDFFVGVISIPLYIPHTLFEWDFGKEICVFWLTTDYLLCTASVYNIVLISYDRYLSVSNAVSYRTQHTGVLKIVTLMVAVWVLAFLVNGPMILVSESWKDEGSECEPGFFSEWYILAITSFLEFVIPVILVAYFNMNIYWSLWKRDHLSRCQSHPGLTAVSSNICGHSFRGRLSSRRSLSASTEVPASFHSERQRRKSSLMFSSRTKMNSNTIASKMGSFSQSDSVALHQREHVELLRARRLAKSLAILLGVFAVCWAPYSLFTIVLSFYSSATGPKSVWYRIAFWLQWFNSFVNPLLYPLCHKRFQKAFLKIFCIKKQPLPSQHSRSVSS

[25] = molecular target: T22, 318 nonolfactory human GPCRs (Homo sapiens, UniProt Q9HBX9); details: RXFP1; C21 5 µM
T22 construct: expressed in transfected cells; host or cells: HTLA cells, transient

[26] = molecular target: T23, 318 nonolfactory human GPCRs (Homo sapiens, UniProt Q9UKP6); details: UTS2R; C21 5 µM
T23 construct: expressed in transfected cells; host or cells: HTLA cells, transient
T23 sequence (Q9UKP6 whole entry): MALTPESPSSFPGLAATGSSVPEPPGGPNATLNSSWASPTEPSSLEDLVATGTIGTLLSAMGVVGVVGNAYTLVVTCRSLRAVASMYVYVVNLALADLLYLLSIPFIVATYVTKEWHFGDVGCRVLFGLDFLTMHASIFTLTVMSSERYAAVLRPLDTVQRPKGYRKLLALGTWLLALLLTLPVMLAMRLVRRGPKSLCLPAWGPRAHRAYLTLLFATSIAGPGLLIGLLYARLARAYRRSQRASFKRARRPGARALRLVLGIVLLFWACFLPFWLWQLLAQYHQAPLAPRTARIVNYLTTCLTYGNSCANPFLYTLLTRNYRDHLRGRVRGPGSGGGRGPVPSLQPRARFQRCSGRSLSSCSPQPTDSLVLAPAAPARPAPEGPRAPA

D2 = D2 (Homo sapiens, UniProt P14416); assay: Gi1 BRET dissociation assay, antagonist mode; details: human D2, HEK293T cells, vs quinpirole
Procedure: (§1) Separate pcDNA plasmids containing the sequence for Gβ1, Gγ2-GFP^2, Gi1-Rluc8, and either human dopamine D2 receptor or histamine H4 receptor were cotransfected into HEK293T cells (in 10 cm plates) at 1.5 μg/construct using Transit-2020 (Mirus) at a ratio of 3 μL/μg Transit/DNA. The next day, cells were harvested and plated in DMEM containing 1% dFBS in polylysine-coated 96-well plates (Greiner) at 50 000 cells per well. Sixteen hours later, media was aspirated from each well, and cells were subsequently rinsed with 60 μL of assay buffer (20 mM HEPES, 1× Hanks Buffered Saline Solution, pH 7.4). Before drug treatment, 60 μL of fresh assay buffer was added to each well followed by 10 μL of 50 uM Coelenterazine 400a (Prolume). Luminescence and fluorescence were measured using an LB940 Mithras (Berthold technologies), and BRET was computed as the ratio of GFP^2 fluorescence to luciferase signal.
(§2) In the absence of C21 ([B] = 0), this equation becomes the standard four-parameter logistic equation for fitting agonist concentration–response data.

[27] = molecular target: T24, human H4 histamine receptors (Homo sapiens, UniProt Q9H3N8); assay: Gi1 BRET dissociation assay, antagonist mode; details: human H4, HEK293T cells, vs histamine
T24 construct: expressed in transfected cells; host or cells: HEK293T, transient (pcDNA plasmids)
Procedure: as §1, §2

Q: How did the “FOLD OVER BASAL” value [1] turn out when `c1ccc2c(c1)N=C(N1CCNCC1)c1ccccc1N2` [C21, 11-(1-piperazinyl)-5H-dibenzo[b,e][1,4]diazepine] was run?
A: Its value is 1.1 fold and 0.9 fold and 1.2 fold and 0.7 fold.

Q: And the “FOLD OVER BASAL” value [2]?
A: The value was 1.2 fold and 0.8 fold.

Q: What about the “FOLD OVER BASAL” value [3] of the same molecule?
A: Its value is 1 fold and 1.1 fold and 1.3 fold.

Q: And the “FOLD OVER BASAL” value [4]?
A: Its value is 0.7 fold and 0.8 fold and 0.9 fold.

Q: And the “FOLD OVER BASAL” value [5]?
A: Its value is 0.1 fold and 0.2 fold.

Q: What about the “FOLD OVER BASAL” value [6] of the same molecule?
A: The value was 1.6 fold and 0.9 fold and 0.8 fold.

Q: What about the “FOLD OVER BASAL” value [7] of the same molecule?
A: The value was 0.7 fold and 1 fold and 0.5 fold and 0.9 fold.

Q: And the “FOLD OVER BASAL” value [8]?
A: The value was 0.6 fold and 0.3 fold.

Q: And the “FOLD OVER BASAL” value [9]?
A: The value was 0.5 fold and 0.7 fold and 0.6 fold.

Q: And the “FOLD OVER BASAL” value [10]?
A: Its value is 0.8 fold and 1.3 fold and 1.5 fold and 1.1 fold.

Q: What about the “FOLD OVER BASAL” value [11] of the same molecule?
A: Its value is 0.9 fold and 1.1 fold and 1 fold and 0.7 fold.

Q: What about the “FOLD OVER BASAL” value [12] of the same molecule?
A: Its value is 0.3 fold and 0.6 fold and 0.5 fold and 0.4 fold.

Q: And the “FOLD OVER BASAL” value [13]?
A: Its value is 0.6 fold and 0.7 fold and 0.9 fold.

Q: What about the “FOLD OVER BASAL” value [14] of the same molecule?
A: Its value is 1.2 fold and 0.7 fold and 1.1 fold and 0.9 fold.

Q: What about the “FOLD OVER BASAL” value [15] of the same molecule?
A: The value was 1.6 fold and 1.5 fold and 1.7 fold.

Q: What about the “FOLD OVER BASAL” value [16] of the same molecule?
A: The value was 1.1 fold and 1 fold and 1.2 fold.

Q: And the “FOLD OVER BASAL” value [17]?
A: Its value is 1 fold and 0.8 fold.

Q: What about the “FOLD OVER BASAL” value [18] of the same molecule?
A: The value was 1.1 fold and 0.8 fold and 0.6 fold and 0.9 fold.

Q: And the “FOLD OVER BASAL” value [19]?
A: The value was 0.4 fold and 0.2 fold and 0.3 fold.

Q: What about the “FOLD OVER BASAL” value [20] of the same molecule?
A: Its value is 1.8 fold and 1.3 fold and 1.7 fold and 0.9 fold.

Q: What about the “FOLD OVER BASAL” value [21] of the same molecule?
A: Its value is 0.6 fold and 0.9 fold and 0.5 fold.

Q: And the “FOLD OVER BASAL” value [22]?
A: The value was 0.9 fold and 0.8 fold and 1 fold.

Q: What about the “FOLD OVER BASAL” value [23] of the same molecule?
A: Its value is 1.1 fold and 0.7 fold and 0.9 fold and 0.6 fold.

Q: What about the “FOLD OVER BASAL” value [24] of the same molecule?
A: The value was 6.3 fold and 4 fold and 5.7 fold and 3.8 fold.

Q: And the “FOLD OVER BASAL” value [25]?
A: The value was 0.4 fold and 0.6 fold.

Q: And the “FOLD OVER BASAL” value [26]?
A: Its value is 0.8 fold and 0.9 fold and 1 fold.

Q: And the “antagonist activity, Gi-dissociation assay” value (D2)?
A: Its value is “antagonism”.

Q: What about the “antagonist activity, Gi-dissociation assay” value [27] of the same molecule?
A: The value was “no antagonism was observed”.
